Experimental data: patent publication US10239880B2, “Cyclopenta[d]pyrimidines and substituted cyclopenta[d]pyrimidines as antitubulin and microtubule targeting agents, monocyclic pyrimidines as tubulin inhibitors, and pyrrolopyrimidines as targeted antifolates and tubulin and multiple receptor tyrosine kinase inhibition and antitumor agents” (Duquesne University of the Holy Spirit, priority 2015, dated 2019)
Entries after “also recorded” stand apart in the source; their conditions may differ. Read-outs that look alike come from different tables or passages of the source.

Assays:
[1] = test system: P-gp Overexpressing NCI/ADR-RES; assay: Antiproliferative effect, P-gp overexpressing NCI/ADR-RES (SRB assay); conditions: Homo sapiens, read-out: IC50 ± SD P-gp Overexpressing NCI/ADR-RES
[2] = test system: Parental OVCAR-8; assay: Antiproliferative effect, parental OVCAR-8 (SRB assay); format: cell-based; conditions: Homo sapiens, Table 10, n = 3, read-out: IC50 ± SD Parental OVCAR-8
[3] = test system: tubulin (colchicine site); assay: Inhibition of [3H]colchicine binding to tubulin (Section III); conditions: 5 μM; Section III compounds
[4] = test system: purified tubulin; assay: Inhibition of tubulin assembly (Section II); format: biochemical; conditions: Table 5; Section II compounds; read-out: Inhibition of tubulin assembly IC50 ± SD
Protocol: The effects of 3, 4, 6, 7 and 9 on the polymerization of purified tubulin were evaluated (Table 5). This allows a study of the direct interaction of these compounds with their intracellular target. The ability of these compounds to bind to the colchicine site on tubulin was evaluated by measuring inhibition of [^3H]colchicine binding to tubulin.

[5] = test system: Parental SK-OV-3; assay: Antiproliferative activity, parental SK-OV-3; format: cell-based; conditions: Homo sapiens, Table 6, read-out: IC50 ± SD Parental SK-OV-3
[6] = test system: Pgp expressing SK-OV-3 MDR1-6-6; assay: Antiproliferative activity, Pgp expressing SK-OV-3 MDR1-6-6; format: cell-based; conditions: Homo sapiens
[7] = test system: MDA-MB-435 cancer cells; assay: Antiproliferative effect in MDA-MB-435 cancer cells (SRB assay); format: cell-based; conditions: Table 2, read-out: MDA-MB-435 IC50
[8] = test system: Parental HeLa; assay: Antiproliferative activity, parental HeLa; format: cell-based; conditions: Homo sapiens, Table 7, read-out: IC50 ± SD Parental HeLa
Text: (§1) Another clinically relevant drug resistance mechanism of tubulin-targeting agents is the overexpression of the βIII isotype of tubulin.

[9] = test system: A-10 cells; assay: Microtubule depolymerization, cell-based phenotypic assay in A-10 cells
[10] = Metabolite identification of 3 with human liver microsomes by LC/MS/MS; format: in vitro ADME
Text: Compound 3 (Table 4), the para-methylthiophenyl substituted cyclopenta[d]pyrimidne, was designed to decrease the possible demethylation. […] Thus, the methylsulfinyl analog 4 (Table 4) and the methylsulfonyl analog 5 (Table 4) were also synthesized to determine their antiproliferative potencies. […] The electron donating, para-methylamino moiety of 8 (Table 1) and the para-dimethylamino moiety of 9 (Table 4) were designed as isosteric replacements of the O-methoxy moiety. According to the literature,^7 8 should be the major metabolite of 9. […] Compound 13 (Table 4), replaced the phenyl ring with a cyclohexyl ring to determine the importance of π-stacking interaction of the aniline ring. The variations proposed of compounds 10-13 would also serve as structural means to decrease the O-demethylation. […] Similarly, 9 could also function as a potential long acting agent, since the metabolites of both 3 and 9 are anticipated to be potent compounds against tumor cells. Section II Compounds Chemistry:
FIG. 7a) HPLC spectra of 3 incubated with human liver microsomes at 0 and 60 min. Metabolites M1-M5 and parent 3 were illustrated on the spectra. FIG. 7b) MS and MS/MS spectrum of 3. FIG. 7c) MS and MS/MS spectrum of M1 (compound 5). FIG. 7d) MS and MS/MS spectrum of M2 (compound 4). FIG. 7e) Fragmentation of M1 and M2 (MS/MS 239.1340).

[11] = test system: β-III overexpressing HeLa; assay: Antiproliferative activity, β-III overexpressing HeLa; format: cell-based; conditions: Homo sapiens, HeLa; Table 7; read-out: IC50 ± SD β-III overexpressing HeLa
Text: as §1

[12] = test system: NCI/ADR resistant tumor model; assay: NCI/ADR-RES xenograft trial (resistant tumor model); format: in vivo, mice; conditions: day 11, AG165 75 mg/kg
Text: AG165 in MDA-MB-435 xenograph model:

[13] = molecular target: EGFR (Homo sapiens, UniProt P00533); assay: Kinase inhibition, whole-cell assay, EGFR; format: cell-based; conditions: Table 1; IC50 ± SD; read-out: Kinase inhibition IC50 [whole-cell assays] EGFR
Chain of EGFR (P00533 25-1210, species assumed): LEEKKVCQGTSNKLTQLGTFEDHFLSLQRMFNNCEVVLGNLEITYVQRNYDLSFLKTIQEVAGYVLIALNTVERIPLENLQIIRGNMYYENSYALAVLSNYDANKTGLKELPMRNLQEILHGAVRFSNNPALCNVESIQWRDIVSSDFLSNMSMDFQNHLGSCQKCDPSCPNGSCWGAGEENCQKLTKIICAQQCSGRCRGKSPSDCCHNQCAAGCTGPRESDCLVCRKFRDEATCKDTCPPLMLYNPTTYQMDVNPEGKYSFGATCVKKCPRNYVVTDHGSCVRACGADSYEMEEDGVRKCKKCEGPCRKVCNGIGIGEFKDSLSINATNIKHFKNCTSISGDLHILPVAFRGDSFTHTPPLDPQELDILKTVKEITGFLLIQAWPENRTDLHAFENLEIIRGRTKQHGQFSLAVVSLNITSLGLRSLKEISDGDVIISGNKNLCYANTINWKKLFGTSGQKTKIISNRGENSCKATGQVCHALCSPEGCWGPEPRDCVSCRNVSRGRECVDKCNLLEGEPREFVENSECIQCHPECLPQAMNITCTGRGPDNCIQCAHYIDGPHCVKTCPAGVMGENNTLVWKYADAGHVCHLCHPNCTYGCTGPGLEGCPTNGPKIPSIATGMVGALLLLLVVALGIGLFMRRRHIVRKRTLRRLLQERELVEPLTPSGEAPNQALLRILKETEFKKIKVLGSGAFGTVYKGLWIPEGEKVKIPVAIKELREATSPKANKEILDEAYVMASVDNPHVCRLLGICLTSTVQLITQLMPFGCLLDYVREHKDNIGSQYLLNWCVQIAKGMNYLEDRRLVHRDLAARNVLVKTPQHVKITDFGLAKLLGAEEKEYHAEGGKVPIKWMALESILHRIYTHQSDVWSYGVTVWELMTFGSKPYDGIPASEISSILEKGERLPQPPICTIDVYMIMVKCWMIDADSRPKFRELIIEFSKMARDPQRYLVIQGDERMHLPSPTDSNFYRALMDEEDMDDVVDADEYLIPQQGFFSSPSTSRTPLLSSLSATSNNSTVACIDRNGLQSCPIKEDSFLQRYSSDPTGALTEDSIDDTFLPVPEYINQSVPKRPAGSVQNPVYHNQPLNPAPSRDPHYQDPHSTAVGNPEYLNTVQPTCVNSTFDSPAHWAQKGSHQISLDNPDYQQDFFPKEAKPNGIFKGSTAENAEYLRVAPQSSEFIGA

[14] = test system: MDA-MB-435 xenograft; assay: MDA-MB-435 xenograft trial; conditions: for adverse effects / toxicity in xenograft trial: cumulative dosing; for antitumor effects: MDA-MB-435 xenograft
[15] = molecular target: PDGFR-β (Homo sapiens, UniProt P09619); assay: Kinase inhibition, whole-cell assay, PDGFR-β; format: cell-based; conditions: Table 1; IC50 ± SD; read-out: Kinase inhibition IC50 [whole-cell assays] PDGFR-β
Chain of PDGFR-β (P09619 33-1106, species assumed): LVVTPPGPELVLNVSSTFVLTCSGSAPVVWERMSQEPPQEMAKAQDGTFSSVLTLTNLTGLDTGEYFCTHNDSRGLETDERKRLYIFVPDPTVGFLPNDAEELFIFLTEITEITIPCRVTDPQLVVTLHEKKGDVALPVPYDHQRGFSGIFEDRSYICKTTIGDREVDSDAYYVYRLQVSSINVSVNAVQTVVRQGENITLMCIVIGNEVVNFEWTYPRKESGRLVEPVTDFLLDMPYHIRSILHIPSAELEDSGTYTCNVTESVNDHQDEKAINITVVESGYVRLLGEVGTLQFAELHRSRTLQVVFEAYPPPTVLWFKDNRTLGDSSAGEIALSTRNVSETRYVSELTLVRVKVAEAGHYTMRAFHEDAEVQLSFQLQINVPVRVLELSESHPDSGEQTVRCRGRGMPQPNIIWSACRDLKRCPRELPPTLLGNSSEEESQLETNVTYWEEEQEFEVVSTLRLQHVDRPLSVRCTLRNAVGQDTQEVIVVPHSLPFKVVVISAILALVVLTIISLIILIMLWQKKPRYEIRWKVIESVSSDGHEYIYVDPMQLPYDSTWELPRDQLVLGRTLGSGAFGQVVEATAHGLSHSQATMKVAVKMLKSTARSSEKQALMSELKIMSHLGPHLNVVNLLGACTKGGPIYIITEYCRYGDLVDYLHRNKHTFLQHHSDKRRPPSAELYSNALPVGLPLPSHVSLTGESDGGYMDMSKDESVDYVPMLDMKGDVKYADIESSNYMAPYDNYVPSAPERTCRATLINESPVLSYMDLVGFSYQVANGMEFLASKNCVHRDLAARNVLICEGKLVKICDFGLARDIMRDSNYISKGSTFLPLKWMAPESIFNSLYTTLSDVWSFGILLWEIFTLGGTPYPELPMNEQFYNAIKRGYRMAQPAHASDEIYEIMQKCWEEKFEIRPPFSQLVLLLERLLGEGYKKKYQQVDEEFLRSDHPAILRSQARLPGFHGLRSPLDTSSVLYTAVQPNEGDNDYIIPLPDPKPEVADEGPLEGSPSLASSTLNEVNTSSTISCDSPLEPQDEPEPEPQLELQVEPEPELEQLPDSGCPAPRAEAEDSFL

[16] = test system: MDA-MB-231 xenograft; assay: MDA-MB-231 xenograft trial
[17] = test system: A431
[18] = IP 75 mg/kg, listed as AG 165, 75 mg/kg

Question: With `CC(=O)O[C@H]1C(=O)[C@@]2(C)[C@H]([C@H](OC(=O)c3ccccc3)[C@]3(O)C[C@H](OC(=O)[C@H](O)[C@@H](NC(=O)c4ccccc4)c4ccccc4)C(C)=C1C3(C)C)[C@]1(OC(C)=O)CO[C@@H]1C[C@@H]2O` [paclitaxel] as the compound, how does the IC50 [1] read?
Answer: 5000 nM

Question: And the IC50 [2]?
Answer: 10 nM

Question: For `COc1ccc(/C=C\c2cc(OC)c(OC)c(OC)c2)cc1O` [CA-4, combretastatin A-4], which “Inhibition of colchicine binding (% inhibition ± SD)” value [3] is on record?
Answer: 97%

Question: What about the IC50 ([6]; SK-OV-3, read-out: IC50 ± SD Pgp expressing SK-OV-3 MDR1-6-6) of the same compound?
Answer: 6.6 ± 1.3 nM

Question: And the IC50 ([7]; Homo sapiens, MDA-MB-435)?
Answer: 3.47 ± 0.6 nM

Question: And the IC50 [1]?
Answer: 9 ± 2 nM

Question: What about the IC50 [8] of the same compound?
Answer: 4.7 ± 0.2 nM

Question: And the EC50 ([9]; Rattus norvegicus, A10, Table 2, read-out: Microtubule depolymerization EC50)?
Answer: 13.1 nM

Question: And the IC50 [2]?
Answer: 6 ± 0.7 nM

Question: Which “MS Peak Area in 60 min sample, HPLC area” value [10] does the source give for `Cc1nc2c(c(N(C)c3ccc([S+](C)[O-])cc3)n1)CCC2` (centres unmarked) [Section II compound 4] here?
Answer: 2,199,500

Question: With `CSc1ccc(N(C)c2nc(C)nc3c2CCC3)cc1` [Compound 3] as the compound, how does the IC50 [5] read?
Answer: 7.2 ± 0.6 nM

Question: And the IC50 [11]?
Answer: 5.26 ± 0.78 nM

Question: What about the IC50 ([6]; SK-OV-3, Table 6, read-out: IC50 ± SD Pgp expressing SK-OV-3 MDR1-6-6) of the same compound?
Answer: 9.28 ± 0.42 nM

Question: What about the IC50 [1] of the same compound?
Answer: 210 ± 10 nM

Question: What about the IC50 [8] of the same compound?
Answer: 6.95 ± 0.53 nM

Question: And the EC50 ([9]; Rattus norvegicus, A10, read-out: EC50 in A-10 cells (Concentration that causes 50% tubulin loss in A-10 cells), Table 4, Section II compounds)?
Answer: 12.6 nM

Question: And the IC50 [2]?
Answer: 500 ± 100 nM

Question: What does the source list for `Cc1nc2c(c(N(C)c3ccc(S(C)(=O)=O)cc3)n1)CCC2` [Section II compound 5]?
Answer: MS Peak Area in 60 min sample, HPLC area ([10]; Section II compound 3 incubated with human liver microsomes, 60 min): 98,900; MS Peak Area in 60 min sample, Percentage (%) ([10]; Section II compound 3 incubated with human liver microsomes, 60 min, parent and metabolites): 2.2%

Question: Which results are given for `CCCn1ccc2nc(C)nc(N(C)c3ccc(OC)cc3)c21.Cl` [3•HCl]?
Answer: tumor volume vs control treated mice ([12]; p=0.0003): significantly smaller; tumor volume vs PTX (10 mg/kg) treated mice ([12]; p=0.0333): significantly smaller; IC50 [13]: 89.3 ± 9.2 nM; final average tumor mass compared to the vehicle ([14]; Day 15, IP 75 mg/kg): statistically significant (p<0.001) lower final average tumor mass; mouse weight change ([14]; IP 75 mg/kg, compared to the vehicle): recoverable weight loss; adverse effects / toxicity in xenograft trial ([14]; IP 75 mg/kg, 75 mg/kg): did not induce any noticeable adverse effects or toxicities; also recorded: no apparent toxicity; adverse effects / toxicity in xenograft trial [14, 18]: no evidence of effects on either central or peripheral nervous system; tumor growth during the trial ([14]; IP 75 mg/kg, nude mice): inhibited tumor growth; antitumor effects ([14]; IP 75 mg/kg, 75 mg/kg): statistically significant antitumor effects (p<0.001); antitumor effects [14, 18]: highly statistically significant (p<0.001) antitumor effects; tumors vs control ([14]; days 9, 11 and 15, 75 mg/kg, p<0.01 days 9 and 11, p<0.0001 day 15): significantly smaller; IC50 [15]: > 200 nM; antitumor effects ([16]; MDA-MB-231 xenograft, 3.HCl 75 mg/kg IP, paclitaxel 10 mg/kg IP): statistically significant antitumor effects comparable to paclitaxel; tumors vs control ([16]; days 10 and 15, 75 mg/kg, p<0.01 and p<0.0001): significantly smaller; IC50 [17]: 107 ± 18 nM; IC50 [7]: 8.8 ± 3.4 nM; EC50 ([9]; Table 2, read-out: Microtubule depolymerization EC50): 20 nM
